Assay results: EPA's ToxValDB 9.5
Each block holds one compound with its values, some of them ahead of it.

System: Rattus norvegicus
Conditions: for LOAEL / NOAEL: Sprague-Dawley; for LOEL / NOEL: Wistar
[1] = reproduction developmental, duration: 28 days, inhalation, M, generation: P0, P0: Other Systems: Bone: Bone Histopathology + P0: Other Systems: Esophagus: Esophagus Histopathology + P0: Other Systems: Eye: Eye …
[2] = reproduction developmental, duration: 50 days, inhalation, F, generation: P0, P0: Other Systems: Bone: Bone Histopathology + P0: Other Systems: Esophagus: Esophagus Histopathology + P0: Other Systems: Eye: Eye …
[3] = short-term, duration: 3 weeks, inhalation, M/F, Alpk:Albino, Whole Body: Body Weight Change + Whole Body: Clinical Observations
[4] = chronic, duration: 92 days, oral, gavage, F, kidney: relative kidney weight
[5] = chronic, duration: 92 days, oral, gavage, M, liver: relative liver weight
[6] = short-term, duration: 28 days, oral, gavage, F, kidney: absolute kidney weight + kidney: relative kidney weight + liver: absolute liver weight + liver: relative liver weight
[7] = short-term, duration: 28 days, oral, gavage, M, adrenal gland: absolute adrenal gland weight + adrenal gland: relative adrenal gland weight + testis: relative testis weight + thymus: …
[8] = short-term, duration: 28 days, oral, gavage, M, liver: relative liver weight + spleen: absolute spleen weight
[9] = short-term, duration: 28 days, oral, gavage, F, Liver: Liver Weight, Absolute + Liver: Liver Weight, Relative + Thyroid: Thyroid Gland Weight, Relative + Whole Body: Body Weight, Absolute…
[10] = short-term, duration: 28 days, oral, gavage, F, Pituitary: Thyroid stimulating hormone (TSH) + Thyroid: Thyroxine (T4), Free (Free T4)
[11] = short-term, duration: 28 days, oral, gavage, M, Epididymis: Epididymis Weight, Absolute + Epididymis: Epididymis Weight, Relative + Liver: Liver Weight, Relative + Liver: Liver, Abnormal …
[12] = short-term, duration: 28 days, oral, gavage, M, Epididymis: Epididymis, Abnormal Size + Pituitary: Thyroid stimulating hormone (TSH) + Prostate: Prostate, Abnormal Size + Seminal Vesicles…

NEL (short-term, duration: 3 weeks, inhalation, F, Alpk:Albino, Multi-organ: Uterus and Gonad (Unspecified) Histopathology): 54400 mg/m3 | NEL (short-term, duration: 3 weeks, inhalation, M/F, Alpk:Albino, Blood: Potassium (K), Blood + Blood: Sodium (Na), Blood + Heart: Heart Histopathology + Kidney: Glucose (GLU), Urine + Kidney: Protein, …): 54400 mg/m3 | NEL (short-term, duration: 3 weeks, inhalation, M, Alpk:Albino, Multi-organ: Epididymis and Gonad (Unspecified) Histopathology): 54400 mg/m3
Structure (SMILES): FC(F)=C(F)OC(F)(F)C(F)(F)C(F)(F)F [Perfluoropropyl trifluorovinyl ether]
LOAEL (reproduction developmental, duration: 28 days, inhalation, M, generation: P0, P0: Cardiovascular: Aorta: Aorta Histopathology + P0: Cardiovascular: Heart: Heart Histopathology + P0: Cardiovascular: Heart: Heart Weight…): 43900 mg/m3 | LOAEL [1]: 43900 mg/m3 | NOAEL [1]: 10900 mg/m3 | LOAEL (reproduction developmental, duration: 50 days, inhalation, F, generation: P0, P0: Cardiovascular: Aorta: Aorta Histopathology + P0: Cardiovascular: Heart: Heart Histopathology + P0: Cardiovascular: Heart: Heart Weight…): 43900 mg/m3 | LOAEL [2]: 43900 mg/m3 | NOAEL [2]: 10900 mg/m3 | LEL [3]: 54400 mg/m3 | NEL [3]: 27200 mg/m3

Structure (SMILES): Cc1ccc(S(=O)(=O)NC(=O)Nc2cccc(OS(=O)(=O)c3ccc(C)cc3)c2)cc1 [Pergafast 201]
LOEL [4]: 150 mg/kg-day | NOEL [4]: 50 mg/kg-day | LOEL (chronic, duration: 92 days, oral, gavage, F, liver: absolute liver weight + liver: relative liver weight): 12.5 mg/kg-day | LOEL [5]: 150 mg/kg-day | NOEL [5]: 50 mg/kg-day | LOEL [6]: 150 mg/kg-day | NOEL [6]: 30 mg/kg-day | LOEL [7]: 750 mg/kg-day | NOEL [7]: 150 mg/kg-day | LOEL (short-term, duration: 28 days, oral, gavage, M, brain: relative brain weight + liver: absolute liver weight): 30 mg/kg-day | LOEL [8]: 150 mg/kg-day | NOEL [8]: 30 mg/kg-day

Structure (SMILES): FC(F)(I)C(F)(F)C(F)(F)C(F)(F)I [Perfluoro-1,4-diiodobutane]
LOAEL [9]: 30 mg/kg-day | NOAEL [9]: 10 mg/kg-day | NOAEL (short-term, duration: 28 days, oral, gavage, F, Liver: Liver, Abnormal Area(s) + Liver: Liver, Abnormal Shape + Multi-organ: Follicle stimulating hormone (FSH) + Multi-organ: Luteinizing …): 30 mg/kg-day | LOAEL [10]: 10 mg/kg-day | NOAEL [10]: 3 mg/kg-day | LOAEL [11]: 30 mg/kg-day | NOAEL [11]: 10 mg/kg-day | LOAEL [12]: 10 mg/kg-day | NOAEL [12]: 3 mg/kg-day | NOAEL (short-term, duration: 28 days, oral, gavage, M, Liver: Liver Weight, Absolute + Liver: Liver, Abnormal Area(s) + Liver: Liver, Abnormal Shape + Liver: Liver, Abnormal Size + Multi-organ: …): 30 mg/kg-day | LOAEL (short-term, duration: 28 days, oral, gavage, M, Thyroid: Triiodothyronine, Free (Free T3)): 1 mg/kg-day
